Test results reported in ChEMBL document CHEMBL1201862, “PubChem BioAssay data set” (2004).
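Briefly, cells in 96-well plates were exposed to five compound concentrations for 48 h, and endpoints were estimated by linear interpolation. Abbreviation: GI50, concentration required for 50% inhibition of growth.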 Activity calls are given as the source filed them. Rule as the data show it: active = GI50 up to about 1.1 µM and inactive = higher.

Assays:
Assay in all cases: growth of human tumour cells (NCI), 48 h
HCT-116 = test system: HCT-116
NCI-H226 = test system: NCI-H226
RPMI-8226 = test system: RPMI-8226
TK-10 = test system: TK-10
HOP-62 = test system: HOP-62
KM12 = test system: KM12
LOX IMVI = test system: LOX IMVI
CCRF-CEM = test system: CCRF-CEM
T47D = test system: T47D
U-251 = test system: U-251
SF-268 = test system: SF-268
OVCAR-5 = test system: OVCAR-5
SK-MEL-28 = test system: SK-MEL-28
786-0 = test system: 786-0
SK-MEL-5 = test system: SK-MEL-5
SF-539 = test system: SF-539
ACHN = test system: ACHN
NCI/ADR-RES = test system: NCI/ADR-RES
NCI-H522 = test system: NCI-H522
MDA-N = test system: MDA-N

| Compound | GI50 (HCT-116) | GI50 (NCI-H226) | GI50 (RPMI-8226) | GI50 (TK-10) | GI50 (HOP-62) | GI50 (KM12) | GI50 (LOX IMVI) | GI50 (CCRF-CEM) | GI50 (T47D) | GI50 (U-251) | GI50 (SF-268) | GI50 (OVCAR-5) | GI50 (SK-MEL-28) | GI50 (786-0) | GI50 (SK-MEL-5) | GI50 (SF-539) | GI50 (ACHN) | GI50 (NCI/ADR-RES) | GI50 (NCI-H522) | GI50 (MDA-N) |
| --- | --- | --- | --- | --- | --- | --- | --- | --- | --- | --- | --- | --- | --- | --- | --- | --- | --- | --- | --- | --- |
| Cc1nc(Nc2ccc(Cl)c(Cl)c2)sc1C(=O)/C=C/c1ccc2c(c1)OCO2 | 20.6 µM (inactive) | 25.9 µM (inactive) | 17.1 µM (inactive) | 24.5 µM (inactive) | 17.9 µM (inactive) | 20.9 µM (inactive) | 19.4 µM (inactive) | 31.8 µM (inactive) | 42.5 µM (inactive) | 22 µM (inactive) | 24.3 µM (inactive) | 88.7 µM (inactive) | 31.7 µM (inactive) | 20.2 µM (inactive) | 33.4 µM (inactive) | 23.7 µM (inactive) | 16.8 µM (inactive) | 34.4 µM (inactive) | – | – |
| COc1ccc(/C=C2\CCC(C)(CN(C)C)C2=O)cc1OC (stereo not given) | > 100 µM (inactive) | > 100 µM (inactive) | > 100 µM (inactive) | > 100 µM (inactive) | > 100 µM (inactive) | > 100 µM (inactive) | > 100 µM (inactive) | > 100 µM (inactive) | – | > 100 µM (inactive) | > 100 µM (inactive) | > 100 µM (inactive) | > 100 µM (inactive) | > 100 µM (inactive) | > 100 µM (inactive) | > 100 µM (inactive) | > 100 µM (inactive) | – | > 100 µM (inactive) | – |
| CC(=O)C1=C(C)N(c2ccc(C)cc2)C2(O)C3=C(C(=O)c4ccccc4C3=O)C(O)=CC12Cl (stereo not given) | 30.8 µM (inactive) | 43 µM (inactive) | 6.5 µM (inactive) | 28.4 µM (inactive) | 32.2 µM (inactive) | 5.37 µM (inactive) | 12.1 µM (inactive) | – | 26.7 µM (inactive) | 11.7 µM (inactive) | 23.6 µM (inactive) | 25.5 µM (inactive) | 10.2 µM (inactive) | 25.4 µM (inactive) | 6.92 µM (inactive) | 12.2 µM (inactive) | 15.4 µM (inactive) | 5.65 µM (inactive) | 6.14 µM (inactive) | – |
| O=C(CC1(O)C(=O)Nc2c(Cl)cc(Cl)cc21)c1ccc(Br)cc1Br (stereo not given) | 4.31 µM (inactive) | 19 µM (inactive) | 2.75 µM (inactive) | 18.1 µM (inactive) | 20.8 µM (inactive) | 12.9 µM (inactive) | 5.19 µM (inactive) | 0.474 µM (active) | – | 13.1 µM (inactive) | 8.17 µM (inactive) | 17.7 µM (inactive) | 14.3 µM (inactive) | 11.3 µM (inactive) | 7.4 µM (inactive) | 14.6 µM (inactive) | 14.1 µM (inactive) | – | 2.89 µM (inactive) | 7.57 µM (inactive) |
| Cc1cs/c(=N/c2ccccc2)n1CCC(O)(P(=O)(O)O)P(=O)(O)O | > 100 µM (inactive) | > 100 µM (inactive) | – | > 100 µM (inactive) | > 100 µM (inactive) | > 100 µM (inactive) | > 100 µM (inactive) | – | – | – | > 100 µM (inactive) | > 100 µM (inactive) | – | > 100 µM (inactive) | 71.6 µM (inactive) | > 100 µM (inactive) | 67.3 µM (inactive) | > 100 µM (inactive) | > 100 µM (inactive) | > 100 µM (inactive) |
| O=C1CC[C@@]2(O)[C@H]3Cc4ccc(-c5cccc(O)c5)c5c4[C@@]2(CCN3CC2CC2)[C@H]1O5 | 11.4 µM (inactive) | 29.3 µM (inactive) | 23.3 µM (inactive) | 1.01 µM (active) | 24.8 µM (inactive) | 10 µM (inactive) | 12.9 µM (inactive) | < 0.01 µM (active) | – | 8.38 µM (inactive) | 22.3 µM (inactive) | 13.6 µM (inactive) | 32.2 µM (inactive) | 18.2 µM (inactive) | 16.3 µM (inactive) | 18.9 µM (inactive) | 25.4 µM (inactive) | 15.8 µM (inactive) | 16.1 µM (inactive) | 14.6 µM (inactive) |
| CCN1c2nc3ccccc3nc2N(CC)c2nc3ccccc3nc21 | 26.9 µM (inactive) | 51.8 µM (inactive) | 34.5 µM (inactive) | 52.6 µM (inactive) | – | 39.5 µM (inactive) | > 100 µM (inactive) | 48.3 µM (inactive) | – | 48 µM (inactive) | 32.1 µM (inactive) | > 100 µM (inactive) | 46.5 µM (inactive) | 46.1 µM (inactive) | 41.2 µM (inactive) | 25.8 µM (inactive) | 39.1 µM (inactive) | 63.8 µM (inactive) | 49.5 µM (inactive) | 57.8 µM (inactive) |
| COc1cc(OC)c2c(=O)c3c([N+](=O)[O-])cccc3n(C)c2c1 | > 100 µM (inactive) | > 100 µM (inactive) | > 100 µM (inactive) | > 100 µM (inactive) | > 100 µM (inactive) | > 100 µM (inactive) | > 100 µM (inactive) | > 100 µM (inactive) | – | 94.8 µM (inactive) | > 100 µM (inactive) | > 100 µM (inactive) | > 100 µM (inactive) | > 100 µM (inactive) | > 100 µM (inactive) | > 100 µM (inactive) | > 100 µM (inactive) | – | > 100 µM (inactive) | – |
| c1ccc(-c2csc3c2-n2cccc2C3N2CCCC2)cc1 (stereo not given) | 43.8 µM (inactive) | 85.1 µM (inactive) | 20.8 µM (inactive) | 27 µM (inactive) | 26.5 µM (inactive) | 30.7 µM (inactive) | 40.7 µM (inactive) | 70.1 µM (inactive) | – | 11.1 µM (inactive) | 13.9 µM (inactive) | 20.2 µM (inactive) | 24.7 µM (inactive) | 58.1 µM (inactive) | 4.84 µM (inactive) | 36.4 µM (inactive) | > 100 µM (inactive) | > 100 µM (inactive) | 13.3 µM (inactive) | 34.4 µM (inactive) |
| COc1cc(OCc2ccccc2)c2c(CCC(=O)O)cc(=O)oc2c1.COc1cc(OCc2ccccc2)cc2oc(=O)cc(CCC(=O)O)c12 | 54 µM (inactive) | 87.3 µM (inactive) | 57.3 µM (inactive) | 31.6 µM (inactive) | – | 43.8 µM (inactive) | 20.9 µM (inactive) | 36.7 µM (inactive) | – | 55 µM (inactive) | 61 µM (inactive) | > 100 µM (inactive) | 42.3 µM (inactive) | 92.5 µM (inactive) | 70.6 µM (inactive) | 71.6 µM (inactive) | 37.5 µM (inactive) | 52.7 µM (inactive) | 42.5 µM (inactive) | > 100 µM (inactive) |
| CCCCCCCCCCCCC(O)[C@H]1CC[C@H](C(O)CCCCCC(=O)CCCCC2CC(C(C)=O)C(=O)O2)O1 (stereo not given in full) | 1.02 µM (active) | 17.6 µM (inactive) | 1.65 µM (inactive) | 14.1 µM (inactive) | 4.98 µM (inactive) | 8.77 µM (inactive) | 2.08 µM (inactive) | 3.17 µM (inactive) | – | 8.87 µM (inactive) | 12.3 µM (inactive) | 18.4 µM (inactive) | 16.9 µM (inactive) | 12.9 µM (inactive) | 0.802 µM (active) | 14.1 µM (inactive) | 7.29 µM (inactive) | 3.44 µM (inactive) | 3.94 µM (inactive) | 3.68 µM (inactive) |
| CC(C)(C)CNCCCNc1ccc(Cl)cc1 | 55.1 µM (inactive) | 18.5 µM (inactive) | 21.2 µM (inactive) | 19.7 µM (inactive) | 97.1 µM (inactive) | 36 µM (inactive) | 25.3 µM (inactive) | 35.8 µM (inactive) | – | > 100 µM (inactive) | 65.6 µM (inactive) | 51.8 µM (inactive) | 20.9 µM (inactive) | 82.2 µM (inactive) | – | 92.9 µM (inactive) | > 100 µM (inactive) | > 100 µM (inactive) | 24.1 µM (inactive) | 46 µM (inactive) |
| CCOP(=O)(OCC)C(c1ccccc1)N(C(=O)NC(F)(F)F)c1cccc(F)c1 (stereo not given) | > 100 µM (inactive) | > 100 µM (inactive) | 83.2 µM (inactive) | > 100 µM (inactive) | > 100 µM (inactive) | > 100 µM (inactive) | > 100 µM (inactive) | > 100 µM (inactive) | – | > 100 µM (inactive) | > 100 µM (inactive) | > 10 µM (inactive) | > 100 µM (inactive) | > 100 µM (inactive) | > 100 µM (inactive) | > 100 µM (inactive) | > 100 µM (inactive) | 58.9 µM (inactive) | > 100 µM (inactive) | > 100 µM (inactive) |
| O=S1(=O)OCCOS(=O)(=O)C1S(=O)(=O)c1ccc2ccccc2c1 | > 100 µM (inactive) | – | > 100 µM (inactive) | > 100 µM (inactive) | > 100 µM (inactive) | > 100 µM (inactive) | > 100 µM (inactive) | > 100 µM (inactive) | – | > 100 µM (inactive) | – | > 100 µM (inactive) | > 100 µM (inactive) | > 100 µM (inactive) | > 100 µM (inactive) | – | > 100 µM (inactive) | > 100 µM (inactive) | – | > 100 µM (inactive) |
| CCOC(=O)Nc1cc2c(c(N)n1)N=C(c1ccccc1)[C@H](C)N2 [MIVOBULIN ISETHIONATE] | < 0.0001 µM (active) | 0.00215 µM (active) | 0.000215 µM (active) | 0.00273 µM (active) | 0.0562 µM (active) | < 0.0001 µM (active) | < 0.0001 µM (active) | < 0.0001 µM (active) | – | 0.0369 µM (active) | < 0.0001 µM (active) | 23 µM (inactive) | – | 0.00215 µM (active) | < 0.0001 µM (active) | – | < 0.0001 µM (active) | < 0.0001 µM (active) | < 0.0001 µM (active) | < 0.0001 µM (active) |
